Assay results as given in US12084420B2, “Indoline compounds for inhibiting KIF18A” (Volastra Therapeutics, Inc., priority 2021, dated 2024).
Where two headings read alike, the source gives them in different places.

Columns and labels:
hKIF18A (1-374) = hKIF18A (1-374) (Homo sapiens (Human), UniProt Q8NI77); experiment: Inhibition of KIF18A microtubule-dependent ATPase activity (ADP-Glo); settings: KIF18A microtubule-dependent ATPase activity, biochemical assay
HCC15 cells = experiment: Cell viability of KIF18a-sensitive cell lines, HCC15 (Cell Titre-Glo, 7 days); assay type: cell-based
Experimental: (§1) Cell Viability of KIF18a-Sensitive Cell Lines
(§2) Cell lines were seeded as follows 24 hours before compound treatment: HCC15 (Korean Cell Line Bank) 600 cell/well, 95 μL of RPMI-1640 media supplemented with 100 units/mL penicillin, 100 units/mL streptomycin and 10% FBS; NIH:OVCAR-3 (ATCC), 1000 cell/well, 95 μL of RPMI-1640 media supplemented with 100 units/mL penicillin, 100 units/mL streptomycin, 0.01 mg/mL bovine insulin, and 20% FBS; JIMT-1 (Addexbio) 1000 cell/well, 95 μL of DMEM media supplemented with 100 units/mL penicillin, 100 units/mL streptomycin, and 10% FBS.
(§3) Test compounds were added to cells in a 20× dilution scheme by adding 5 μL of serially diluted compound to the plate, and the treated cells were incubated for an additional 7 days in a 37° C., 5% CO2 incubator. DMSO was used as the negative control (0% effect), and wells omitting cells were used as the positive control (100% effect). The cells were incubated for seven days, and cell viability determined via the Promega Cell Titre-Glo® Assay kit. Luminescence units were converted to ATP concentrations via an ATP standard curve (10 point, 2-fold dilution from 5 uM). % Inhibition was calculated for each well as: ([max−min]−[test−min])/[max−min]. IC50 values were calculated from concentration vs. % Inhibition data via a four-parameter variable slope model.

NIH:OVCAR-3 cells = experiment: Cell viability of KIF18a-sensitive cell lines, NIH:OVCAR-3 (Cell Titre-Glo, 7 days); assay type: cell-based
Experimental: as §1, §2, §3

JIMT-1 cells = experiment: Cell viability of KIF18a-sensitive cell lines, JIMT-1 (Cell Titre-Glo, 7 days); assay type: cell-based
Experimental: as §1, §2, §3

[1] = target: KIF18a-Microtubule Complex (Homo sapiens (Human), UniProt Q8NI77); experiment: Binding kinetics to KIF18a-microtubule complex (global progress curve analysis); settings: for kon (on-rate from binding kinetics assay): global progress curve analysis; for Ki: read-out: KI (determined from binding kinetic assay koff/kon), koff/kon; for koff: read-out: koff (off-rate from binding kinetics assay)
Experimental: Binding Kinetics to KIF18a-Microtubule Complex
Compound binding kinetics parameters (kon and koff) were determined by the method of global progress curve analysis (GPCA). […] ADP product levels were determined by the Promega® ADP-Glo assay. The time/dose-dependent progress curves were then globally fit to a Michaelis-Menten kinetics model with 1-step slow binding inhibition to derive both on-rate kon and off-rate koff values (Zhang, R., Wong, K. (2017): “High performance enzyme kinetics of turnover, activation and inhibition for translational drug discovery”, Expert Opinion on Drug Discovery, 2017 January; 12(1):17-37. doi: 10.1080/17460441.2017.1245721).

[2] = HCC15, 168 h, HCC-15 cells, 7 days, Cell Titre-Glo, read-out: HCC-15 IC50
[3] = Homo sapiens, OVCAR-3, 168 h, NIH-OVCAR3 cells, 7 days, Cell Titre-Glo, read-out: NIH-OVCAR3 IC50
[4] = Homo sapiens, 168 h, JIMT-1 cells, 7 days, Cell Titre-Glo, read-out: JIMT-1 IC50
[5] = HCC-15 cells, 7 days, Cell Titre-Glo, read-out: HCC-15 IC50
[6] = NIH-OVCAR3 cells, 7 days, Cell Titre-Glo, read-out: NIH-OVCAR3 IC50
[7] = JIMT-1 cells, 7 days, Cell Titre-Glo, read-out: JIMT-1 IC50

Sequence of hKIF18A (1-374) (Q8NI77 whole entry, looked up): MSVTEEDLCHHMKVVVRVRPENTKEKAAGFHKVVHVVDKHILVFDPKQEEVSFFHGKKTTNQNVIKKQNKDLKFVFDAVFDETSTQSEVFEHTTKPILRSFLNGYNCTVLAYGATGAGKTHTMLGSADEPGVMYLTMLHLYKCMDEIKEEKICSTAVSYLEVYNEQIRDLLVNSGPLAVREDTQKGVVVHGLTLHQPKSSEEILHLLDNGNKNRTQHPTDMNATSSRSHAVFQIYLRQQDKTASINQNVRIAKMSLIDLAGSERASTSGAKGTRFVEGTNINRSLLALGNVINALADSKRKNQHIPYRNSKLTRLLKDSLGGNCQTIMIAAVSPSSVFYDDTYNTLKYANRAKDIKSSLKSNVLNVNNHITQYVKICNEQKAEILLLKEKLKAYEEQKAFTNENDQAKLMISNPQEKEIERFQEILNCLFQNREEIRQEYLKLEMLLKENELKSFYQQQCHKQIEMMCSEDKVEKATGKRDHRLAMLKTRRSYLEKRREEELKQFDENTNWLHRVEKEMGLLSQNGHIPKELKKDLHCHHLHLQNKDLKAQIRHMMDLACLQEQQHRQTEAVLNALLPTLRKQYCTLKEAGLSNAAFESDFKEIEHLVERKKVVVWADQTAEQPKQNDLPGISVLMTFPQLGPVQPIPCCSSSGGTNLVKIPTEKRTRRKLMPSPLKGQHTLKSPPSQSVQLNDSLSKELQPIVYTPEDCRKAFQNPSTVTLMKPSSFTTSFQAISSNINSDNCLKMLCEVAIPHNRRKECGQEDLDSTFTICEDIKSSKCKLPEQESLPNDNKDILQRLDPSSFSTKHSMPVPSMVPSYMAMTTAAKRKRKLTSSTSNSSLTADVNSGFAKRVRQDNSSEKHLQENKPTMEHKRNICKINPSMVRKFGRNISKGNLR
Sequence of hKIF18A (1-374) (Q2XVP4 whole entry partner, looked up): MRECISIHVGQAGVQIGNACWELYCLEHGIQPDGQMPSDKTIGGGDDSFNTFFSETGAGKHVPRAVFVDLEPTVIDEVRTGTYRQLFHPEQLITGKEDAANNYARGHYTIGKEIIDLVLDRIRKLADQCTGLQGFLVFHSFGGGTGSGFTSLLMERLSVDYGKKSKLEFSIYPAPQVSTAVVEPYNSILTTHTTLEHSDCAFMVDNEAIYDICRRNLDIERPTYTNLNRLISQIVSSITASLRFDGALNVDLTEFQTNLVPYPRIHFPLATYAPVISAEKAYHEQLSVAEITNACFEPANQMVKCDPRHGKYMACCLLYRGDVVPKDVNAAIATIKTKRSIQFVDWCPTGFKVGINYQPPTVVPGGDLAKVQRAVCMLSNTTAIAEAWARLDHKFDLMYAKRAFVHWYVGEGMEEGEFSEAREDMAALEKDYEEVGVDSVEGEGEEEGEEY
Sequence of hKIF18A (1-374) (P02554 whole entry partner, looked up): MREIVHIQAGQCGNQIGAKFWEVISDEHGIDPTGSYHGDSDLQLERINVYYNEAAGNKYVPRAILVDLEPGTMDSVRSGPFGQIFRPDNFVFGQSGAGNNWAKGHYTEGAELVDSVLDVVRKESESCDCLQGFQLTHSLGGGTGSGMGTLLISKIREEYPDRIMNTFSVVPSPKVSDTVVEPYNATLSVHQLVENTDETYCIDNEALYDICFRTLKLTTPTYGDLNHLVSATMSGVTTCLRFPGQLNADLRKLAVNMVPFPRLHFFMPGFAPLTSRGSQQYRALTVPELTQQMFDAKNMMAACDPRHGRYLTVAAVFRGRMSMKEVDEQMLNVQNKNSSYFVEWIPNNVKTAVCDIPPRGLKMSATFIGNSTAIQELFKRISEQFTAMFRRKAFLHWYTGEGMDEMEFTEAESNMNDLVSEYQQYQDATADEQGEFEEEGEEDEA
Sequence of KIF18a-Microtubule Complex (Q8NI77 whole entry, looked up): as the sequence (Q8NI77 whole entry, looked up) above
Sequence of KIF18a-Microtubule Complex (Q2XVP4 whole entry partner, looked up): as the sequence (Q2XVP4 whole entry partner, looked up) above
Sequence of KIF18a-Microtubule Complex (P02554 whole entry partner, looked up): as the sequence (P02554 whole entry partner, looked up) above

IC50 (hKIF18A (1-374)) [nM] | IC50 (HCC15 cells; [2]) [nM] | IC50 (NIH:OVCAR-3 cells; [3]) [nM] | kon (on-rate from binding kinetics assay) [1] [M⁻¹ s⁻¹] | disc. t1/2 (dissociation half-life ln(2)/koff) ([1]; ln(2)/koff) [h] | Ki [1] [nM] | koff [1] [s⁻¹] | SMILES | IC50 (JIMT-1 cells; [4]) [nM] | further results
25 | 94 | 110 | – | – | – | – | CC(C)(C)S(=O)(=O)Nc1cccc(C(=O)N2CC3(CCC4(CC4)CC3)c3cc(NS(C)(=O)=O)ccc32)c1 [Compound 355, 2-methyl-N-(3-(5″-(methylsulfonamido)dispiro[cyclopropane-1,1′-cyclohexane-4′,3″-indoline]-1″-carbonyl)phenyl)propane-2-sulfonamide] | 120 | –
6.7 | 21 | 20 | 6390 | 7.9 | 0.26 | 2.44e-05 | CS(=O)(=O)Nc1ccc2c(c1)C1(CCC3(CC3)CC1)CN2C(=O)c1cccc(S(=O)(=O)NC23CC(C2)C3)c1 [Compound 223, N-(bicyclo[1.1.1]pentan-1-yl)-3-(5″-(methylsulfonamido)dispiro[cyclopropane-1,1′-cyclohexane-4′,3″-indoline]-1″-carbonyl)benzenesulfonamide] | 15 | –
6.8 | 13 | – | 26700 | 61 | 0.12 | 3.06e-06 | CS(=O)(=O)Nc1ccc2c(c1)C1(CCC3(CC3)CC1)CN2C(=O)c1cccc(S(=O)(=O)N2CC3(CCC3)C2)c1 [Compound 151, N-(1″-(3-((2-azaspiro[3.3]heptan-2-yl)sulfonyl)benzoyl)dispiro[cyclopropane-1,1′-cyclohexane-4′,3″-indolin]-5″- yl)methanesulfonamide] | – | –
19 | 21 | 22 | 7220 | 32 | 0.83 | 6.11e-06 | CC(C)(C)NS(=O)(=O)c1cc(C(=O)N2CC3(CCC4(CC4)CC3)c3cc(NS(C)(=O)=O)ccc32)ccc1F [Compound 159, N-(tert-butyl)-2-fluoro-5-(5″- (methylsulfonamido)dispiro[cyclopropane-1,1′-cyclohexane-4′,3″-indoline]-1″-carbonyl)benzenesulfonamide] | 15 | –
8.3 | 21 | 21 | 18300 | 10 | 0.96 | 1.86e-05 | CS(=O)(=O)Nc1ccc2c(c1)C1(CCC3(CC3)CC1)CN2C(=O)c1cccc(S(=O)(=O)N2CC(F)(F)C2)c1 [Compound 257, N-(1″-(3-((3,3-difluoroazetidin-1-yl)sulfonyl)benzoyl)dispiro[cyclopropane-1,1′-cyclohexane-4′,3″-indolin]-5″- yl)methanesulfonamide] | 12 | –
6.6 | 11 | 9.1 | – | – | – | – | CC(C)(C)NS(=O)(=O)c1cccc(C(=O)N2CC3(CCC4(CC4)CC3)c3c2ccc(NS(C)(=O)=O)c3F)c1 [Compound 310, N-(tert-butyl)-3-(4″-fluoro-5″-(methylsulfonamido)dispiro[cyclopropane-1,1′-cyclohexane-4′,3″-indoline]-1″-carbonyl)benzenesulfonamide] | 7.9 | –
12 | 36 | – | 13600 | 48 | 0.29 | 3.89e-06 | CC(C)(C)NS(=O)(=O)c1cccc(C(=O)N2CC3(CCC4(CC4)CC3)c3cc(NS(=O)(=O)CCO)ccc32)c1 [Compound 148, N-(tert-butyl)-3-(5″-((2-hydroxyethyl)sulfonamido)dispiro [cyclopropane-1,1′-cyclohexane-4′,3″- indoline]-1″- carbonyl)benzenesulfonamide] | – | –
6.5 | 12 | 12 | – | – | – | – | CC(C)(C)NS(=O)(=O)c1cccc(C(=O)N2CC3(CCC4(CC4)CC3)c3cc(NS(C)(=O)=O)c(F)cc32)c1 [Compound 309, N-(tert-butyl)-3-(6″-fluoro-5″-(methylsulfonamido)dispiro[cyclopropane-1,1′-cyclohexane-4′,3″-indoline]-1″-carbonyl)benzenesulfonamide] | 9.4 | –
7.3 | 15 | – | 30600 | 24 | 0.26 | 8.06e-06 | CC1(NS(=O)(=O)c2cccc(C(=O)N3CC4(CCC5(CC5)CC4)c4cc(NS(C)(=O)=O)ccc43)c2)CCC1 [Compound 182, N-(1-methylcyclobutyl)-3-(5″- (methylsulfonamido)dispiro[cyclopropane-1,1′-cyclohexane-4′,3″-indoline]-1″-carbonyl)benzenesulfonamide] | – | –

Continued, molecule first:

SMILES | IC50 (hKIF18A (1-374)) [nM] | IC50 (HCC15 cells; [2]) [nM] | IC50 (NIH:OVCAR-3 cells; [3]) [nM] | kon (on-rate from binding kinetics assay) [1] [M⁻¹ s⁻¹] | disc. t1/2 (dissociation half-life ln(2)/koff) ([1]; ln(2)/koff) [h] | Ki [1] [nM] | koff [1] [s⁻¹] | IC50 (JIMT-1 cells; [4]) [nM] | further results
CS(=O)(=O)Nc1ccc2c(c1)C1(CCC3(CC3)CC1)CN2C(=O)c1ccc([C@@H](O)C2CCCC2)o1 (single isomer, unassigned) [Compound 352b] | – | – | – | – | – | – | – | – | IC50 (HCC15 cells; [5]): 19 nM; IC50 (NIH:OVCAR-3 cells; [6]): 27 nM; IC50 (JIMT-1 cells; [7]): 19 nM
CS(=O)(=O)Nc1ccc2c(c1)C1(CCC3(CC3)CC1)CN2C(=O)c1cccc(CN2CCC(F)(F)CC2)c1 [Compound 163, N-(1″-(3-((4,4-difluoropiperidin-1-yl)methyl)benzoyl)dispiro[cyclopropane-1,1′-cyclohexane-4′,3″-indolin]-5″- yl)methanesulfonamide] | 20 | 140 | 190 | – | – | – | – | 120 | –
CCNc1ccc2c(c1)C1(CCC3(CC3)CC1)CN2C(=O)c1cccc(S(=O)(=O)N2CCC(F)(F)CC2)c1 [Compound 30, (3-((4,4-difluoropiperidin-1-yl)sulfonyl)phenyl)(5″-(ethylamino)dispiro[cyclopropane-1,1′-cyclohexane-4′,3″-indolin]-1″-yl)methanone] | 180 | 3500 | 1430 | – | – | – | – | 2300 | –
Cc1cc(NC(=O)c2ccc(NS(=O)(=O)CCO)cc2N2CCC3(CC2)CC3)nc(N2CCC(F)(F)CC2)n1 [AMG650, 2-{6-azaspiro[2.5]octan-6-yl}-N-[2-(4,4-difluoropiperidin-1-yl)-6-methylpyrimidin-4-yl]-4-(2-hydroxyethanesulfonamido)benzamide, reference compound] | – | – | – | – | – | – | – | – | IC50 (HCC15 cells; HCC15, 168 h, read-out: IC50, cell viability HCC-15): 66 nM; IC50 (NIH:OVCAR-3 cells; Homo sapiens, OVCAR-3, 168 h, read-out: IC50, cell viability NIH: OVCAR3): 100 nM; IC50 (JIMT-1 cells; Homo sapiens, JIMT-1, 168 h, read-out: IC50, cell viability JIMT-1): 130 nM; dissociation t1/2 ([1]; ln(2)/koff): 4.1 h
CS(=O)(=O)Nc1ccc2c(c1)C1(CCCCC1)CN2C(=O)c1cccc(S(=O)(=O)C2CCCCC2)c1 [Compound 70, N-(1′-(3-(cyclohexylsulfonyl)benzoyl)spiro[cyclohexane-1,3′-indolin]-5′-yl)methanesulfonamide] | 30 | 590 | – | 10000 | 3.0 | 6.5 | 6.39e-05 | – | –
CS(=O)(=O)Nc1ccc2c(c1)C1(CCC3(CC3)CC1)CN2C(=O)c1ccc([C@H](O)C2CCCC2)o1 (single isomer, unassigned) [Compound 352a] | – | – | – | – | – | – | – | – | IC50 (HCC15 cells; [5]): 34 nM; IC50 (NIH:OVCAR-3 cells; [6]): 45 nM; IC50 (JIMT-1 cells; [7]): 40 nM
CS(=O)(=O)Nc1ccc2c(c1)C1(CCCCC1)CN2C(=O)c1cccc(C(O)C2CCCC2)c1 (centres unmarked) [Compound 157, N-(1′-(3-(cyclopentyl(hydroxy)methyl)benzoyl)spiro[cyclohexane-1,3′-indolin]-5′-yl)methanesulfonamide] | 58 | 600 | 720 | – | – | – | – | 440 | –
CS(=O)(=O)Nc1ccc2c(c1)C1(CCC3(CC3)CC1)CN2C(=O)c1cccc(S(=N)(=O)C2CCCC2)c1 (single isomer, unassigned) [Compound 287b] | 12 | – | – | – | – | – | – | – | IC50 (HCC15 cells; [5]): 97 nM; IC50 (NIH:OVCAR-3 cells; [6]): 33 nM; IC50 (JIMT-1 cells; [7]): 64 nM
